In assay [1] the test system is phosphorylation of Akt at Serine 473 in U87 MG cells. Kind of assay: cells. Particulars: Homo sapiens, U-87 MG, 2 h, read-out: U87Cell IC50, pAkt (Ser 473), U87 MG cells, two hours with compound.
The target of another assay is PI3Kα (Homo sapiens (Human), UniProt P42336). Particulars: read-out: PI3Kα AlphaScreen ® Ki. (Alpha assays give light when donor and acceptor beads are brought close together.)
For assay [2], the target named is ProfilerPro Kinase Selectivity Assay Kit kinases (Homo sapiens, UniProt Q16566). The format is biochemical. The note with it: CAMK4; 1 μM compound concentration.
Method: (§1) Compounds were profiled using a LabChip® EZ Reader II platform and a ProfilerPro Kinase Selectivity Assay Kit (Caliper Lifesciences Inc., Hopkinton, Mass.). Compounds were tested at a concentration of 1 M in duplicate, with mean data reported as percent of control (POC).
Assay [3] concerns the target ProfilerPro Kinase Selectivity Assay Kit kinases (Homo sapiens, UniProt Q13627). The class given is biochemical. The note with it: DYRK1a; 1 μM compound concentration.
Method: as §1
The target of assay [4] is ProfilerPro Kinase Selectivity Assay Kit kinases (Homo sapiens, UniProt Q16539). The format is biochemical. The note with it: p38 alpha; 1 μM compound concentration.
Method: as §1
The target of assay [5] is ProfilerPro Kinase Selectivity Assay Kit kinases (Homo sapiens, UniProt P08581). The format is biochemical. Particulars: cMET; 1 μM compound concentration.
Method: as §1
Assay [6] addresses ProfilerPro Kinase Selectivity Assay Kit kinases (Homo sapiens, UniProt O75116). The format is biochemical. Particulars: ROCK2; 1 μM compound concentration.
Method: as §1
The target of assay [7] is ProfilerPro Kinase Selectivity Assay Kit kinases (Homo sapiens, UniProt P31751). The format is biochemical. The note with it: AKT2; 1 μM compound concentration.
Method: as §1
Assay [8] deals with ProfilerPro Kinase Selectivity Assay Kit kinases (Homo sapiens, UniProt Q13188). The class given is biochemical. The note with it: MST2; 1 μM compound concentration.
Method: as §1
Assay [9] has as its target ProfilerPro Kinase Selectivity Assay Kit kinases (Homo sapiens, UniProt P49841). The format is biochemical. Particulars: GSK3 beta; 1 μM compound concentration.
Method: as §1
Assay [10] concerns the target ProfilerPro Kinase Selectivity Assay Kit kinases (Homo sapiens, UniProt P48730). The class given is biochemical. Particulars: CK1 delta; 1 μM compound concentration.
Method: as §1
The target in assay [11] is ProfilerPro Kinase Selectivity Assay Kit kinases (Homo sapiens, UniProt P06213). The class given is biochemical. Particulars: INSR; 1 μM compound concentration.
Method: as §1
Assay [12] deals with ProfilerPro Kinase Selectivity Assay Kit kinases (Homo sapiens, UniProt P49137). The format is biochemical. Particulars: MAPKAPK2; 1 μM compound concentration.
Method: as §1
For assay [13], the target named is ProfilerPro Kinase Selectivity Assay Kit kinases (Homo sapiens, UniProt Q15418). The format is biochemical. The note with it: RSK1; 1 μM compound concentration.
Method: as §1
Assay [14] concerns ProfilerPro Kinase Selectivity Assay Kit kinases. The class given is biochemical. The note with it: 1 μM compound concentration.
Method: as §1
In assay [15] the target is ProfilerPro Kinase Selectivity Assay Kit kinases (Homo sapiens, UniProt Q8IW41). The format is biochemical. The note with it: PRAK; 1 μM compound concentration.
Method: as §1

Each structure is given as a SMILES string.

Sequence of ProfilerPro Kinase Selectivity Assay Kit kinases (Homo sapiens, UniProt P08581) (P08581 25-1390 limits assumed): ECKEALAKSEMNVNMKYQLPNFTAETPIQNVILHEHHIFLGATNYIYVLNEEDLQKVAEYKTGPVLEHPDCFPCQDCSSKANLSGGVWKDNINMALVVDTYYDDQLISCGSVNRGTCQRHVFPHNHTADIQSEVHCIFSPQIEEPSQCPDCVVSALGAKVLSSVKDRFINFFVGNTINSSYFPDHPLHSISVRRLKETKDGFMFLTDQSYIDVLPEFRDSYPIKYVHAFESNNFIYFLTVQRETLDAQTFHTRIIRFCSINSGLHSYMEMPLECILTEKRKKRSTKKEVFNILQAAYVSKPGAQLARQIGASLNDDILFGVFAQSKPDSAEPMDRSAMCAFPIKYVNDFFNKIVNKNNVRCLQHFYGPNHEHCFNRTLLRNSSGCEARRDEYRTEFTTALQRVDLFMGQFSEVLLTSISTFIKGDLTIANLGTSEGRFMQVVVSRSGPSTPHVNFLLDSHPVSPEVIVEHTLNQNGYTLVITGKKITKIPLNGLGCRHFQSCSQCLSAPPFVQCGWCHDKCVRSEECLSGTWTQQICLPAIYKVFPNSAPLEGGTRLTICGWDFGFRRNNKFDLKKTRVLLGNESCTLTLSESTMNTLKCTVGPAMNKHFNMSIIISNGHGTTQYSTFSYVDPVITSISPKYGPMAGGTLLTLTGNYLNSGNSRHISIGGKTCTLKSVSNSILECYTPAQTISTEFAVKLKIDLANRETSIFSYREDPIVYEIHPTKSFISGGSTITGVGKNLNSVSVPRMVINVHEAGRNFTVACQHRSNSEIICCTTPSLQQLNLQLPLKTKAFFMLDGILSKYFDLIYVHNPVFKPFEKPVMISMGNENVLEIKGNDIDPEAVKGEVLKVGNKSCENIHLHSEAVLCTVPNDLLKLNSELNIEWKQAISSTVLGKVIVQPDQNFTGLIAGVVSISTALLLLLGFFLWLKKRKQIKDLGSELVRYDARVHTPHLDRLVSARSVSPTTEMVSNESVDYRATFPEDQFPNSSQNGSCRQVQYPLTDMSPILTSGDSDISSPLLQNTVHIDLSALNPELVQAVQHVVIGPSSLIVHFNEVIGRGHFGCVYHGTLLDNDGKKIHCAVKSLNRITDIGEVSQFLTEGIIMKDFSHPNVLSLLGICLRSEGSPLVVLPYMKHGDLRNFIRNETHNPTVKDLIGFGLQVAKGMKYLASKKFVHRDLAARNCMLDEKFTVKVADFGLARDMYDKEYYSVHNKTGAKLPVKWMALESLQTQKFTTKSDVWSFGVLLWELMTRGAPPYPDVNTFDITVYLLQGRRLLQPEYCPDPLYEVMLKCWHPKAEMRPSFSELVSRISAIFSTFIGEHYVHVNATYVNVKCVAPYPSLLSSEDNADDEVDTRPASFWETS
Sequence of PI3Kα (P42336 whole entry): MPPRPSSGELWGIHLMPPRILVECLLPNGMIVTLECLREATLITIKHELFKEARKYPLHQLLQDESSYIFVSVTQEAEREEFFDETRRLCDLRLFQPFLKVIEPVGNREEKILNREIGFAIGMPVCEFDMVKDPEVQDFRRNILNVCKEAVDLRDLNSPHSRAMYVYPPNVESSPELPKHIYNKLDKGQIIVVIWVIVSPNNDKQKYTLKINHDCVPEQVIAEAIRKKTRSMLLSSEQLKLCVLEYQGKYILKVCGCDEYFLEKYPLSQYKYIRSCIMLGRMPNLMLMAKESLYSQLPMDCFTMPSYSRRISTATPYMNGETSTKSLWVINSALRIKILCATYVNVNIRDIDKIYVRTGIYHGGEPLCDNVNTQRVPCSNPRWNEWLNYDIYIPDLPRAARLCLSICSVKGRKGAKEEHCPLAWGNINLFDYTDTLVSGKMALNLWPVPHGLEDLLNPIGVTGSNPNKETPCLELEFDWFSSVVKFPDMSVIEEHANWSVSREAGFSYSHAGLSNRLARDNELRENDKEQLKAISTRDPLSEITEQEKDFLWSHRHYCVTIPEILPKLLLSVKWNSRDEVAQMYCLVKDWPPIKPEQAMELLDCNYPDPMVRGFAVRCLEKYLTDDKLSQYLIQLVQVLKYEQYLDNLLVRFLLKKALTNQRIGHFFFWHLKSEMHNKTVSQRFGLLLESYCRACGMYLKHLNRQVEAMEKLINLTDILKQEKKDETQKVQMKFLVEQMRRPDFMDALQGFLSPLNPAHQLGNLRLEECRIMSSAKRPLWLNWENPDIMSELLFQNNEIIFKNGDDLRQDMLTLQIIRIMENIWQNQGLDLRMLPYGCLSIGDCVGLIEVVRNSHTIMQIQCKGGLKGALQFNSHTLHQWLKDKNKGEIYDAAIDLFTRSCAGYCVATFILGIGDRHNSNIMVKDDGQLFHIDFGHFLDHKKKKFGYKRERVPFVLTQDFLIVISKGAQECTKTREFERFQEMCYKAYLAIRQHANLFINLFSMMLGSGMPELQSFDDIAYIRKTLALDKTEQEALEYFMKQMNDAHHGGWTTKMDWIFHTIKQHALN
Sequence of PI3Kα (P27986 whole entry partner): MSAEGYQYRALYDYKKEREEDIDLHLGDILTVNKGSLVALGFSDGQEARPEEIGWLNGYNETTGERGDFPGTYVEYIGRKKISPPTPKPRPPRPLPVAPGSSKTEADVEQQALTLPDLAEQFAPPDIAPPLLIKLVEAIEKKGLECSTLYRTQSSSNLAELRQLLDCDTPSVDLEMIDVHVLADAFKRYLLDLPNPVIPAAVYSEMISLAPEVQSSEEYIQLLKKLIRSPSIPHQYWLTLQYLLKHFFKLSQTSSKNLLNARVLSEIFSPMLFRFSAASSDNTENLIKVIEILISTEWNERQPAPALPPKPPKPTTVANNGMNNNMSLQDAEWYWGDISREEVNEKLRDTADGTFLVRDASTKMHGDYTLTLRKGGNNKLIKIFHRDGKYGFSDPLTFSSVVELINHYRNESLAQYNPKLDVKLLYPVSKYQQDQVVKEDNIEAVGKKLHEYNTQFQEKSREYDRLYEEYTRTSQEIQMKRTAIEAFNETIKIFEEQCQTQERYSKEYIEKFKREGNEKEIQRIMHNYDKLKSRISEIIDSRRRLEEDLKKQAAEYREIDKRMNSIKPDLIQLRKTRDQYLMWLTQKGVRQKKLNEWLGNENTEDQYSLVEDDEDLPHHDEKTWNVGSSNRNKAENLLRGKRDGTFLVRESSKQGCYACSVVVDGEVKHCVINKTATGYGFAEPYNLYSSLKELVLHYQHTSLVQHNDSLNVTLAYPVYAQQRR
Sequence of ProfilerPro Kinase Selectivity Assay Kit kinases (Homo sapiens, UniProt Q16539) (Q16539 2-360 limits assumed): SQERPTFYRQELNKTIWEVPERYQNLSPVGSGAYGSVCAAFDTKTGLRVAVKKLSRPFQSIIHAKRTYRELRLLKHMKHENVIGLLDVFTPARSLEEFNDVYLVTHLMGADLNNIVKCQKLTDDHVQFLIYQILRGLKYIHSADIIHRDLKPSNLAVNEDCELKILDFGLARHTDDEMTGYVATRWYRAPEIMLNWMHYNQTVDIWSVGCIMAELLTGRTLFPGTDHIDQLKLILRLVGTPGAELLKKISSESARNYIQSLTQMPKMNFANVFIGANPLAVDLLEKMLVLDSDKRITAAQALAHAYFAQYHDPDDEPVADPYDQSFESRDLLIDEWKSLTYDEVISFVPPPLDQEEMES

Usually IC50 stands for the concentration that gives 50% inhibition. One may read the Ki as the dissociation constant of the complex between target and ligand, obtained from inhibition or displacement. Turning to `COc1ccc(Nc2ncc(CN3CCN(C(C)=O)CC3)cc2-c2nc(C)nc3[nH]cnc23)cn1` [Example 89, 1-(4-((6-(6-methoxypyridin-3-ylamino)-5-(2-methyl-9H-purin-6-yl)pyridin-3-yl)methyl)piperazin-1-yl)ethanone], the IC50 in assay [1] was 0.146 µM. Besides, the Ki at PI3Kα was 0.042 µM. Further, the “POC (Percent of control) CAMK4” value in assay [2] was found to be 109 POC. In addition, in assay [3], the “POC (Percent of control) DYRK1a” value was found to be 88 POC. The “POC (Percent of control) p38 alpha” value in assay [4] stood at 100 POC. The “POC (Percent of control) cMET” value in [5] was 102 POC. For the same compound, the “POC (Percent of control) ROCK2” value in assay [6] is given as 101 POC. For the same compound, the “POC (Percent of control) AKT2” value in [7] came out at 93 POC. In addition, in assay [8], the “POC (Percent of control) MST2” value is given as 98 POC. The “POC (Percent of control) GSK3 beta” value in [9] came to 100 POC. Moreover, the “POC (Percent of control) CK1 delta” value in [10] came out at 98 POC. For the same compound, in [11], the “POC (Percent of control) INSR” value turned out to be 97 POC. Besides, the “POC (Percent of control) MAPKAPK2” value in assay [12] was 100 POC. Also, in [13], the “POC (Percent of control) RSK1” value is on record as 99 POC. Further, in [14] (AMPK), the “POC (Percent of control) AMPK” value was determined as 91 POC. In [14] (CAMK2), the “POC (Percent of control) CAMK2” value is 108 POC. Further, the “POC (Percent of control) PKC beta2” value in assay [14] (PKC beta2) worked out at 94 POC. The “POC (Percent of control) TAK1” value in assay [14] (TAK1) turned out to be 93 POC. The “POC (Percent of control) PRAK” value in assay [15] was 99 POC.

The record behind these values is patent US8772480B2, “Inhibitors of PI3 kinase and/or mTOR” (priority 2009, dated 2014).
